According to PubChem BioAssay (NCI):
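Method: 48-hour compound exposure of cells in 96-well plates, five concentrations, linear interpolation of endpoints. Definition used: TGI = concentration required for complete inhibition of growth.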

What was measured:
Test in all cases: NCI tumour cell line growth inhibition, 48 h
SNB-78 CNS = system: SNB-78 CNS
HT29 colon = system: HT29 colon
HCC-2998 colon = system: HCC-2998 colon
LOX IMVI melanoma = system: LOX IMVI melanoma
DLD-1 colon = system: DLD-1 colon
XF 498 CNS = system: XF 498 CNS
SNB-19 CNS = system: SNB-19 CNS
NCI-H23 lung = system: NCI-H23 lung
786-0 renal = system: 786-0 renal
K-562 leukemia = system: K-562 leukemia
KM20L2 colon = system: KM20L2 colon
UACC-62 melanoma = system: UACC-62 melanoma
LXFL 529 NSCLC = system: LXFL 529 NSCLC
COLO 205 colon = system: COLO 205 colon
SK-MEL-2 melanoma = system: SK-MEL-2 melanoma
M19-MEL melanoma = system: M19-MEL melanoma
SK-MEL-28 melanoma = system: SK-MEL-28 melanoma
KM12 colon = system: KM12 colon
SF-268 CNS = system: SF-268 CNS
SNB-75 CNS = system: SNB-75 CNS
OVCAR-4 ovarian = system: OVCAR-4 ovarian
HL-60(TB) leukemia = system: HL-60(TB) leukemia
SN12C renal = system: SN12C renal
M14 melanoma = system: M14 melanoma
MOLT-4 leukemia = system: MOLT-4 leukemia
CCRF-CEM leukemia = system: CCRF-CEM leukemia
DMS 114 small cell lung = system: DMS 114 small cell lung
SF-539 CNS = system: SF-539 CNS
RXF 393 renal = system: RXF 393 renal
SF-295 CNS = system: SF-295 CNS
OVCAR-8 ovarian = system: OVCAR-8 ovarian
SW-620 colon = system: SW-620 colon
TK-10 renal = system: TK-10 renal
NCI-H522 lung = system: NCI-H522 lung
HCT-116 colon = system: HCT-116 colon
NCI-H226 lung = system: NCI-H226 lung
RXF-631 renal = system: RXF-631 renal
CAKI-1 renal = system: CAKI-1 renal
UACC-257 melanoma = system: UACC-257 melanoma
DMS 273 small cell lung = system: DMS 273 small cell lung
HCT-15 colon = system: HCT-15 colon
IGROV1 ovarian = system: IGROV1 ovarian
U251 CNS = system: U251 CNS
OVCAR-5 ovarian = system: OVCAR-5 ovarian
UO-31 renal = system: UO-31 renal
RPMI-8226 leukemia = system: RPMI-8226 leukemia
OVCAR-3 ovarian = system: OVCAR-3 ovarian
SR leukemia = system: SR leukemia
SK-OV-3 ovarian = system: SK-OV-3 ovarian
HOP-62 NSCLC = system: HOP-62 NSCLC
ACHN renal = system: ACHN renal
NCI-H460 lung = system: NCI-H460 lung
A549 NSCLC = system: A549 NSCLC
MALME-3M melanoma = system: MALME-3M melanoma
EKVX NSCLC = system: EKVX NSCLC
HOP-92 NSCLC = system: HOP-92 NSCLC
A498 renal = system: A498 renal
SK-MEL-5 melanoma = system: SK-MEL-5 melanoma
HOP-18 NSCLC = system: HOP-18 NSCLC

CCC1=CCN(c2ccc(C)cc2)OC1c1ccc(OC)cc1 (configuration not stated)
TGI (SNB-78 CNS): > 100 µM
TGI (HT29 colon): > 100 µM
TGI (HCC-2998 colon): > 100 µM
TGI (LOX IMVI melanoma): > 100 µM
TGI (DLD-1 colon): > 100 µM
TGI (XF 498 CNS): > 100 µM
TGI (SNB-19 CNS): > 100 µM
TGI (NCI-H23 lung): > 100 µM
TGI (786-0 renal): > 100 µM
TGI (K-562 leukemia): > 100 µM
TGI (KM20L2 colon): > 100 µM
TGI (UACC-62 melanoma): > 100 µM
TGI (LXFL 529 NSCLC): > 100 µM
TGI (COLO 205 colon): > 100 µM
TGI (SK-MEL-2 melanoma): > 100 µM
TGI (M19-MEL melanoma): > 100 µM
TGI (SK-MEL-28 melanoma): > 100 µM
TGI (KM12 colon): > 100 µM
TGI (SF-268 CNS): > 100 µM
TGI (SNB-75 CNS): > 100 µM
TGI (OVCAR-4 ovarian): > 100 µM
TGI (HL-60(TB) leukemia): > 100 µM
TGI (SN12C renal): > 100 µM
TGI (M14 melanoma): > 100 µM
TGI (MOLT-4 leukemia): > 100 µM
TGI (CCRF-CEM leukemia): > 100 µM
TGI (DMS 114 small cell lung): > 100 µM
TGI (SF-539 CNS): > 100 µM
TGI (RXF 393 renal): > 100 µM
TGI (SF-295 CNS): > 100 µM
TGI (OVCAR-8 ovarian): > 100 µM
TGI (SW-620 colon): > 100 µM
TGI (TK-10 renal): > 100 µM
TGI (NCI-H522 lung): > 100 µM
TGI (HCT-116 colon): > 100 µM
TGI (NCI-H226 lung): > 100 µM
TGI (RXF-631 renal): > 100 µM
TGI (CAKI-1 renal): > 100 µM
TGI (UACC-257 melanoma): > 100 µM
TGI (DMS 273 small cell lung): > 100 µM
TGI (HCT-15 colon): > 100 µM
TGI (IGROV1 ovarian): > 100 µM
TGI (U251 CNS): > 100 µM
TGI (OVCAR-5 ovarian): > 100 µM
TGI (UO-31 renal): > 100 µM
TGI (RPMI-8226 leukemia): > 100 µM
TGI (OVCAR-3 ovarian): > 100 µM
TGI (SR leukemia): > 100 µM
TGI (SK-OV-3 ovarian): > 100 µM
TGI (HOP-62 NSCLC): > 100 µM
TGI (ACHN renal): > 100 µM
TGI (NCI-H460 lung): > 100 µM
TGI (A549 NSCLC): > 100 µM
TGI (MALME-3M melanoma): > 100 µM
TGI (EKVX NSCLC): > 100 µM

CCOC(OC1=C(C#N)CCC1)C(C)[Se]c1ccccc1 (configuration not stated)
TGI (SNB-78 CNS): > 100 µM
TGI (HT29 colon): > 100 µM
TGI (HCC-2998 colon): > 100 µM
TGI (LOX IMVI melanoma): 22.9 µM
TGI (DLD-1 colon): 87.6 µM
TGI (SNB-19 CNS): > 100 µM
TGI (NCI-H23 lung): 26.6 µM
TGI (786-0 renal): 27.8 µM
TGI (K-562 leukemia): > 100 µM
TGI (KM20L2 colon): > 100 µM
TGI (UACC-62 melanoma): 43.9 µM
TGI (LXFL 529 NSCLC): 46 µM
TGI (COLO 205 colon): > 100 µM
TGI (SK-MEL-2 melanoma): > 100 µM
TGI (M19-MEL melanoma): 30.9 µM
TGI (SK-MEL-28 melanoma): 96.9 µM
TGI (KM12 colon): > 100 µM
TGI (SF-268 CNS): 46.6 µM
TGI (SNB-75 CNS): 77.9 µM
TGI (OVCAR-4 ovarian): 30.5 µM
TGI (HL-60(TB) leukemia): 73.8 µM
TGI (SN12C renal): 35.8 µM
TGI (M14 melanoma): 33.4 µM
TGI (MOLT-4 leukemia): 43.7 µM
TGI (CCRF-CEM leukemia): > 100 µM
TGI (DMS 114 small cell lung): 14.2 µM
TGI (SF-539 CNS): 41 µM
TGI (RXF 393 renal): 34.7 µM
TGI (SF-295 CNS): 71.6 µM
TGI (OVCAR-8 ovarian): 35.9 µM
TGI (TK-10 renal): > 100 µM
TGI (NCI-H522 lung): 26.7 µM
TGI (HCT-116 colon): 42.4 µM
TGI (HOP-92 NSCLC): 49.3 µM
TGI (NCI-H226 lung): 51.7 µM
TGI (RXF-631 renal): 26.3 µM
TGI (CAKI-1 renal): > 100 µM
TGI (UACC-257 melanoma): > 100 µM
TGI (DMS 273 small cell lung): 29.7 µM
TGI (A498 renal): > 100 µM
TGI (HCT-15 colon): 35.2 µM
TGI (IGROV1 ovarian): 68.8 µM
TGI (U251 CNS): 21.5 µM
TGI (OVCAR-5 ovarian): > 100 µM
TGI (UO-31 renal): 67.4 µM
TGI (RPMI-8226 leukemia): 53.1 µM
TGI (OVCAR-3 ovarian): 42.5 µM
TGI (SR leukemia): 34.8 µM
TGI (SK-OV-3 ovarian): > 100 µM
TGI (HOP-62 NSCLC): > 100 µM
TGI (ACHN renal): 96.2 µM
TGI (SK-MEL-5 melanoma): 34 µM
TGI (NCI-H460 lung): > 100 µM
TGI (HOP-18 NSCLC): 55.3 µM
TGI (A549 NSCLC): > 100 µM
TGI (MALME-3M melanoma): 51.9 µM
TGI (EKVX NSCLC): 82.6 µM
